In US20110088107A1, “COMPOSITIONS AND METHODS FOR DERIVING OR CULTURING PLURIPOTENT CELLS” (priority 2009, published 2011):

Experiments:
[1] = system: mEpiSCs; test: Signaling dependence of pluripotent cell lines, mEpiSCs; format: cell-based, mouse; details: normal growth medium, inhibitor or factor added
Experimental: (§1) Pluripotent cells were equally divided and plated on feeders in the indicated growth medium in which these cell lines are normally maintained, and 36 hours later the wells were supplemented with the indicated inhibitors or growth factors. After seven days, wells were fixed and stained to determine the relative percentage of colonies positive for pluripotency markers. SSEA1 staining was used for mouse stem cells. Colony formation was normalized to an internal control “Growth medium” without inhibitors (first left column). Normalized percentages lower than 5% are defined as “sensitivity” to the presence of the supplemented inhibitor. (B-C) Western blot analysis of total ERK1/2, phosphorylated ERK1/2 (pERK1/2) and phosphorylated Stat3 (pStat3). WIBR3 hESC and C1 hiPSC were grown in traditional bFGF/Activin containing media while naive-hESC/hiPSCs were grown in N2B27 PD/CH/FOR/LIF. ‘2×LIF’ indicates two fold increase in LIF concentration. (D) LIF/Stat3 is required for stabilization of naive-hESC/hiPSCs. Naïve NOD mESCs, WIBR3.5 and WIBR3.1 naive-hESC, and C1 naïve-hiPSCs were electroporated with a pBRY-CAGGS-flox-DsRedT4-IP control plasmid, a plasmid encoding a dominant negative Stat3 Y705F mutant (Stat3-DN), or a plasmid Stat3-C constitutively active mutant (pBRY-Stat3-CA). Cells were passaged three times in the presence of puromycin. After 20 days, colonies positive for pluripotency markers were counted and normalized to colonies from cells electroporated with empty vector (n=3 replicates for each condition). (E) RT-PCR expression of early germ cell markers in the presence or absence of BMP4/7/8 cytokines for 7 days. (F) Representative FISH analysis for XIST RNA (red) and Cot1 nuclear RNA (green). Pri-WIBR3.2 cell line was analyzed after passaging in conventional bFGF/serum-containing human ESC growth conditions. Numbers indicate average percentage of XIST positive nuclei counted.
(§2) Small molecules and cytokines were purchased from Tocris, Calbiochem or Sigma, and were supplemented as indicated at the following final concentration: JAK inhibitor (JAKi, 6 μM), Kenpaullone (KP, 5 μM), PD0325901 (PD, 1 μM); CHIR99021 (CH, […]), Forskolin (FK, 10 μM), FGF4-Receptor inhibitors PD173074 (0.1 μM) and SU5401 (2 μM); TGFβ/ALK inhibitors A83-01 (1 μM), RepSox (1 μM), ALK inhibitor (ALKi—SB431542, 2 μM); AICAR (0.5 mM); BixO1294 (1 μM); BayK8644 (1 μM); recombinant human BMP4 (10 ng/ml), recombinant human IL-6 (10 ng/ml), recombinant human TGFβ (500 ng/ml), Media with inhibitors was routinely replaced every 48 hours to sustain activity of compounds.

[2] = system: 129 EpiSC cells; test: Dependence of pluripotency on signaling pathways, EpiSC; format: cell-based, mouse; details: epiESM, Day 6
Experimental: (§3) FIG. 21 illustrates the dependence of pluripotency states on distinct signaling pathways. 129 mES or EpiSC cell samples were equally divided and plated on irradiated MEFs in the indicated growth conditions (mESM or epiESM) in which these cell lines are normally maintained, and 24 hours later the wells were supplemented with either JAKi or ALKi or were kept without any inhibitor. Representative images at Day 6 of the experiment are shown. EpiSC cells as previously described, differentiated upon introduction of ALK inhibitors, while mES cells differentiate upon blocking of Stat3 signaling by the JAK inhibitor.

[3] = system: mESCs; test: Signaling dependence of pluripotent cell lines, mESCs; format: cell-based, mouse; details: normal growth medium, inhibitor or factor added
Experimental: Pluripotent cells were equally divided and plated on feeders in the indicated growth medium in which these cell lines are normally maintained, and 36 hours later the wells were supplemented with the indicated inhibitors or growth factors. After seven days, wells were fixed and stained to determine the relative percentage of colonies positive for pluripotency markers. SSEA1 staining was used for mouse stem cells. Colony formation was normalized to an internal control “Growth medium” without inhibitors (first left column). Normalized percentages lower than 5% are defined as “sensitivity” to the presence of the supplemented inhibitor. (B-C) Western blot analysis of total ERK1/2, phosphorylated ERK1/2 (pERK1/2) and phosphorylated Stat3 (pStat3). WIBR3 hESC and C1 hiPSC were grown in traditional bFGF/Activin containing media while naive-hESC/hiPSCs were grown in N2B27 PD/CH/FOR/LIF. ‘2×LIF’ indicates two fold increase in LIF concentration. (D) LIF/Stat3 is required for stabilization of naive-hESC/hiPSCs. Naïve NOD mESCs, WIBR3.5 and WIBR3.1 naive-hESC, and C1 naïve-hiPSCs were electroporated with a pBRY-CAGGS-flox-DsRedT4-IP control plasmid, a plasmid encoding a dominant negative Stat3 Y705F mutant (Stat3-DN), or a plasmid Stat3-C constitutively active mutant (pBRY-Stat3-CA). Cells were passaged three times in the presence of puromycin. After 20 days, colonies positive for pluripotency markers were counted and normalized to colonies from cells electroporated with empty vector (n=3 replicates for each condition). (E) RT-PCR expression of early germ cell markers in the presence or absence of BMP4/7/8 cytokines for 7 days. (F) Representative FISH analysis for XIST RNA (red) and Cot1 nuclear RNA (green). Pri-WIBR3.2 cell line was analyzed after passaging in conventional bFGF/serum-containing human ESC growth conditions. Numbers indicate average percentage of XIST positive nuclei counted. […]

[4] = system: naive-hESCs/hiPSCs; test: Signaling dependence of pluripotent cell lines, naive-hESC/hiPSC; format: cell-based, human; details: grown in PD/CH/FK/LIF, inhibitor or factor added
Experimental: as §1, §2

[5] = system: hESCs; test: Signaling dependence of pluripotent cell lines, conventional hESCs; format: cell-based, human; details: normal growth medium, inhibitor or factor added
Experimental: Pluripotent cells were equally divided and plated on feeders in the indicated growth medium in which these cell lines are normally maintained, and 36 hours later the wells were supplemented with the indicated inhibitors or growth factors. After seven days, wells were fixed and stained to determine the relative percentage of colonies positive for pluripotency markers. SSEA1 staining was used for mouse stem cells. Colony formation was normalized to an internal control “Growth medium” without inhibitors (first left column). […] (B-C) Western blot analysis of total ERK1/2, phosphorylated ERK1/2 (pERK1/2) and phosphorylated Stat3 (pStat3). WIBR3 hESC and C1 hiPSC were grown in traditional bFGF/Activin containing media while naive-hESC/hiPSCs were grown in N2B27 PD/CH/FOR/LIF. ‘2×LIF’ indicates two fold increase in LIF concentration. […] Cells were passaged three times in the presence of puromycin. […] (E) RT-PCR expression of early germ cell markers in the presence or absence of BMP4/7/8 cytokines for 7 days. (F) Representative FISH analysis for XIST RNA (red) and Cot1 nuclear RNA (green). Pri-WIBR3.2 cell line was analyzed after passaging in conventional bFGF/serum-containing human ESC growth conditions.

[6] = system: naive human pluripotent stem cells; test: Long-term propagation of naive human pluripotent stem cells; format: cell-based; details: genetically unmodified forskolin-dependent naive cells
Experimental: Naïve human pluripotent cells were grown in serum-free N2B27 based media. 500 ml of media was generated by including: 240 ml of DMEM/F12 (Invitrogen #11320), 240 ml of Neurobasal media (Invitrogen #21103), 5 ml of N2 supplement (Invitrogen #17502048), 10 ml B27 supplement (17504044), 10 μg of recombinant human LIF (Millipore, LIF1005), 1 mM glutamine (Invitrogen), 1% nonessential amino acids (Invitrogen), 0.1 mM β-mercaptoethanol (Sigma), pen/strep (Invitrogen), 5 mg/ml bovine serum albumin (Sigma) and small molecule inhibitors as indicated. Naïve-hESCs/hiPSCs were kept on mitomycin C (MMC)-inactivated mouse embryonic fibroblast (MEF) feeder cells, unless indicated otherwise, and where passage by single cell trypsinization every 5-10 days. Throughout the manuscript, indicated passage numbers of naïve-hiPSC/hESCs indicates number of passages counted after induction of the naïve state. The C1 secondary fibroblast cells (19), harbors Doxycycline (DOX) lentiviral vectors encoding Oct4, Sox2 and Klf4 reprogramming factors (45) and a constitutively active lentivirus encoding the reverse tetracycline transactivator (19), were grown in the presence of Dox in N2B27 media supplemented with different inhibitor combinations on gelatin coated plates, until initial PSC colonies were observed and subcloned. Mouse EpiSCs were derived and propagated as previously described (3,4). […]

[7] = system: 129 mES cells; test: Dependence of pluripotency on signaling pathways, 129 mES; format: cell-based, mouse; details: mESM, Day 6
Experimental: as §3

[8] = system: VASA, BLIMP1 and DAZL in hESCs; test: RT-PCR of early germ cell markers, hESCs; format: cell-based, human; details: 7 days
Experimental: (§4) Pluripotent cells were equally divided and plated on feeders in the indicated growth medium in which these cell lines are normally maintained, and 36 hours later the wells were supplemented with the indicated inhibitors or growth factors. After seven days, wells were fixed and stained to determine the relative percentage of colonies positive for pluripotency markers. SSEA1 staining was used for mouse stem cells. Colony formation was normalized to an internal control “Growth medium” without inhibitors (first left column). Normalized percentages lower than 5% are defined as “sensitivity” to the presence of the supplemented inhibitor. (B-C) Western blot analysis of total ERK1/2, phosphorylated ERK1/2 (pERK1/2) and phosphorylated Stat3 (pStat3). WIBR3 hESC and C1 hiPSC were grown in traditional bFGF/Activin containing media while naive-hESC/hiPSCs were grown in N2B27 PD/CH/FOR/LIF. ‘2×LIF’ indicates two fold increase in LIF concentration. (D) LIF/Stat3 is required for stabilization of naive-hESC/hiPSCs. […] After 20 days, colonies positive for pluripotency markers were counted and normalized to colonies from cells electroporated with empty vector (n=3 replicates for each condition). […] Pri-WIBR3.2 cell line was analyzed after passaging in conventional bFGF/serum-containing human ESC growth conditions. Numbers indicate average percentage of XIST positive nuclei counted. […]

[9] = system: VASA, BLIMP1 and DAZL in naive-hESCs; test: RT-PCR of early germ cell markers, naive-hESCs; format: cell-based, human; details: 7 days
Experimental: as §4

| Compound | effect on pluripotency of mEpiSCs [1] | effect on pluripotency of EpiSC cells [2] | effect on pluripotency of mESCs [3] | effect on pluripotency of naive-hESCs/hiPSCs [4] | effect on pluripotency of conventional hESCs [5] | number of passages cells could be maintained [6] | effect on pluripotency of 129 mES cells [7] | activation of germ cell markers VASA, BLIMP1 and DAZL in hESCs [8] | activation of germ cell markers VASA, BLIMP1 and DAZL in naive-hESCs [9] |
| --- | --- | --- | --- | --- | --- | --- | --- | --- | --- |
| NC(=O)c1ccc(-c2nc(-c3ccc4c(c3)OCO4)c(-c3ccccn3)[nH]2)cc1 [ALKi] | rapidly differentiated | differentiated | maintained their pluripotent state | maintained their pluripotent state | rapidly differentiated | – | – | – | – |
| C=C[C@@]1(C)CC(=O)[C@]2(O)[C@@]3(C)[C@@H](O)CCC(C)(C)[C@@H]3[C@H](O)[C@H](OC(C)=O)[C@@]2(C)O1 [Forskolin] | – | – | – | – | – | 15-20 passages | – | – | – |
| CC(C)(C)c1nc2c3cc[nH]c(=O)c3c3cc(F)ccc3c2[nH]1 [JAKi] | – | – | – | readily differentiated | resistant | – | differentiate | – | – |
| BMP4: recombinant human BMP4 growth factor | resulted in the differentiation | – | – | but not of naive-hESCs/hiPSCs or mESCs | resulted in the differentiation | – | – | readily activated | no up-regulation |
